Data as given in US20240066027A1 (DOMAIN THERAPEUTICS, priority 2020, published 2024).

Biological target: T1, human PAR-2 (hPAR-2) receptor expressed in HEK-293 T cells in an endogenous manner (Homo sapiens, UniProt P55085)
T1 construct: human PAR-2 (hPAR-2) receptor expressed in HEK-293 T cells in an endogenous manner; endogenous in cells; host or cells: HEK-293 T cells
T1 sequence (P55085 26-397): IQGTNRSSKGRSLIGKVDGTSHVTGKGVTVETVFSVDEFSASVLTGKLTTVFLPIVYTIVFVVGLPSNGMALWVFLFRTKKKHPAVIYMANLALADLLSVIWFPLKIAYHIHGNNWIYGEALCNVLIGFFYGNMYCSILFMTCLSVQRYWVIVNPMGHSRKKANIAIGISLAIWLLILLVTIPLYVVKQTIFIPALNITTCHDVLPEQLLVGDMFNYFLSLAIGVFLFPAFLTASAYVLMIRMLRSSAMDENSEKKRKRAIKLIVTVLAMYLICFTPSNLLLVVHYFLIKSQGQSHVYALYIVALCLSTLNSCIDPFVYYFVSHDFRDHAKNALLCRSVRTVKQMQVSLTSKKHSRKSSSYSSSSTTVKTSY
Assay: In vitro human PAR-2 functional antagonist activity using calcium assays (Fluo4AM, FLIPR Tetra)
Assay type: cell-based
Details: HEK-293 T cells stimulated by an EC80 of the 2-Furoyl-LIGRLO-NH2 peptide after 10 min incubation with compound; 20 concentrations, duplicate, two independent experiments
In short: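 Antagonist activity was taken as the decrease in the calcium response to an EC80 of 2-Furoyl-LIGRLO-NH2, measured over 5 min. The agonist was added after a 10 min compound-alone step on the same plate. The HEK-293 T cells express PAR-2 endogenously and were loaded with 1 μM Fluo4AM. Signals were referenced to buffer and EC80-alone controls.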

IC50 [nM] | SMILES
< 20 | CN(C)C(=O)CN1CCN(C(=O)c2ccc3c(-c4ccc(Cl)c(F)c4)cn(C(C)(C)C)c3n2)C(C)(C)C1=O [Example 7, 2-(4-(1-(tert-butyl)-3-(4-chloro-3-fluorophenyl)-1H-pyrrolo[2,3-b]pyridine-6-carbonyl)-3,3-dimethyl-2-oxopiperazin-1-yl)-N,N-dimethylacetamide]
20 to 10000 | Cc1cc(N2CCN(C(=O)c3ccc4c(-c5ccc(Cl)c(F)c5)cn(C(C)(C)CO)c4n3)C(C)(C)C2)nc(C)c1C(=O)O [Example 102, 6-(4-(3-(4-chloro-3-fluorophenyl)-1-(1-hydroxy-2-methylpropan-2-yl)-1H-pyrrolo[2,3-b]pyridine-6-carbonyl)-3,3-dimethylpiperazin-1-yl)-2,4-dimethylnicotinic acid]
> 10000 | CC(C)Cc1nn(-c2ccc(Cl)c(F)c2)c2ccc(C(=O)N3CCC4(CC3)C(=O)NCN4c3ccccc3)nc12 [Example 94, 8-(1-(4-chloro-3-fluorophenyl)-3-isobutyl-1H-pyrazolo[4,3-b]pyridine-5-carbonyl)-1-phenyl-1,3,8-triazaspiro[4.5]decan-4-one]
20 to 10000 | CC(C)(C)n1cc(-c2ccc(Cl)c(F)c2)c2ccc(C(=O)N3CCNC(=O)CC3)nc21 [Example 18, 1-(1-(tertbutyl)-3-(4-chloro-3-fluorophenyl)-1H-pyrrolo[2,3-b]pyridine-6-carbonyl)-1,4-diazepan-5-one]
> 10000 | CC(C)(C)n1cc(-c2ccc(Cl)c(F)c2)c2ccc(C(=O)N3CC4(CCOC4)C3)nc21 [Example 9, (1-(tert-butyl)-3-(4-chloro-3-fluorophenyl)-1H-pyrrolo[2,3-b]pyridin-6-yl)(6-oxa-2-azaspiro[3.4]octan-2-yl)methanone]
< 20 | Cc1cc(N2CCN(C(=O)c3ccc4c(-c5ccc(Cl)c(F)c5)cn(CC(C)C)c4n3)C(C)(C)C2)nc(C)c1C(=O)O [Example 95, 6-(4-(3-(4-chloro-3-fluorophenyl)-1-isobutyl-1H-pyrrolo[2,3-b]pyridine-6-carbonyl)-3,3-dimethylpiperazin-1-yl)-2,4-dimethylnicotinic acid]
< 20 | CC1(C)C(=O)NCCN1C(=O)c1ccc2c(-c3ccc(Cl)c(F)c3)cn(CC3CC3)c2n1 [Example 35, 4-(3-(4-chloro-3-fluorophenyl)-1-(cyclopropylmethyl)-1H-pyrrolo[2,3-b]pyridine-6-carbonyl)-3,3-dimethylpiperazin-2-one]
20 to 10000 | CC1(C)C(=O)NCCN1C(=O)c1ccc2c(-c3ccc(Cl)c(F)c3)cn(CCn3cncn3)c2n1 [Example 40, 4-(1-(2-(1H-1,2,4-triazol-1-yl)ethyl)-3-(4-chloro-3-fluorophenyl)-1H-pyrrolo[2,3-b]pyridine-6-carbonyl)-3,3-dimethylpiperazin-2-one]
< 20 | CC(C)Cn1cc(-c2ccc(Cl)c(Cl)c2)c2ccc(C(=O)N3CCNC(=O)C3(C)C)nc21 [Example 107, 4-(3-(3,4-dichlorophenyl)-1-isobutyl-1H-pyrrolo[2,3-b]pyridine-6-carbonyl)-3,3-dimethylpiperazin-2-one]
20 to 10000 | Cc1cc(N2CC3CN(C(=O)c4ccc5c(-c6ccc(Cl)c(F)c6)cn(C(C)(C)C)c5n4)C3C2)nc(C)c1C(=O)O (stereo not drawn) [Example 101, 6-(6-(1-(tert-butyl)-3-(4-chloro-3-fluorophenyl)-1H-pyrrolo[2,3-b]pyridine-6-carbonyl)-3,6-diazabicyclo[3.2.0]heptan-3-yl)-2,4-dimethylnicotinic acid]
20 to 10000 | CC(C)Cn1cc(-c2ccc(Cl)cc2F)c2ccc(C(=O)N3CCNC(=O)C3(C)C)nc21 [Example 115, 4-(3-(4-chloro-2-fluorophenyl)-1-isobutyl-1H-pyrrolo[2,3-b]pyridine-6-carbonyl)-3,3-dimethylpiperazin-2-one]
< 20 | CNC(=O)CN1CCN(C(=O)c2ccc3c(-c4ccc(Cl)c(F)c4)cn(C(C)(C)C)c3n2)C(C)(C)C1=O [Example 6, 2-(4-(1-(tert-butyl)-3-(4-chloro-3-fluorophenyl)-1H-pyrrolo[2,3-b]pyridine-6-carbonyl)-3,3-dimethyl-2-oxopiperazin-1-yl)-N-methylacetamide]
< 20 | CN1CCN(C(=O)c2ccc3c(-c4ccc(Cl)c(F)c4)cn(C(C)(C)C)c3n2)C(C)(C)C1=O [Example 2, 4-(1-(tert-butyl)-3-(4-chloro-3-fluorophenyl)-1H-pyrrolo[2,3-b]pyridine-6-carbonyl)-1,3,3-trimethylpiperazin-2-one]
20 to 10000 | CC1(C)C(=O)NCCN1C(=O)c1ccc2c(-c3ccc(Cl)c(F)c3)cn(CC(F)(F)F)c2n1 [Example 31, 4-(3-(4-chloro-3-fluorophenyl)-1-(2,2,2-trifluoroethyl)-1H-pyrrolo[2,3-b]pyridine-6-carbonyl)-3,3-dimethylpiperazin-2-one]
< 20 | Cc1cc(N2CCN(C(=O)c3ccc4c(-c5ccc(C(F)(F)F)c(F)c5)cn(C(C)(C)C)c4n3)C(C)(C)C2)nc(C)c1C(=O)O [Example 220, 6-(4-(1-(tert-butyl)-3-(3-fluoro-4-(trifluoromethyl)phenyl)-1H-pyrrolo[2,3-b]pyridine-6-carbonyl)-3,3-dimethylpiperazin-1-yl)-2,4-dimethylnicotinic acid]
20 to 10000 | CC(C)(C)n1cc(-c2ccc(Cl)c(F)c2)c2ccc(C(=O)N3CCC4(CC3)NC(=O)NC4=O)nc21 [Example 24, 8-(1-(tert-butyl)-3-(4-chloro-3-fluorophenyl)-1H-pyrrolo[2,3-b]pyridine-6-carbonyl)-1,3,8-triazaspiro[4.5]decane-2,4-dione]
20 to 10000 | CC(C)Cc1nn(-c2ccc(Cl)c(F)c2)c2ccc(C(=O)N3CCNC(=O)C3(C)C)cc12 [Example 228, 4-(1-(4-chloro-3-fluorophenyl)-3-isobutyl-1H-indazole-5-carbonyl)-3,3-dimethylpiperazin-2-one]
20 to 10000 | CC1(C)C(=O)NCCN1C(=O)c1ccc2c(n1)c(C1CC1)nn2-c1ccc(Cl)c(F)c1 [Example 77, 4-(1-(4-chloro-3-fluorophenyl)-3-cyclopropyl-1H-pyrazolo[4,3-b]pyridine-5-carbonyl)-3,3-dimethylpiperazin-2-one]
> 10000 | Cc1cc(N[C@H]2CCN(C(=O)c3ccc4c(-c5ccc(Cl)c(F)c5)cn(C(C)(C)C)c4n3)C2)nc(C)c1C(=O)O [Example 154, (S)-6-((1-(1-(tert-butyl)-3-(4-chloro-3-fluorophenyl)-1H-pyrrolo[2,3-b]pyridine-6-carbonyl)pyrrolidin-3-yl)amino)-2,4-dimethylnicotinic acid]
20 to 10000 | Cc1cc(NC2CCN(C(=O)c3ccc4c(-c5ccc(Cl)c(F)c5)cn(C(C)(C)C)c4n3)CC2C)nc(C)c1C(=O)O (stereo not drawn) [Example 198, 6-((1-(1-(tert-butyl)-3-(4-chloro-3-fluorophenyl)-1H-pyrrolo[2,3-b]pyridine-6-carbonyl)-3-methylpiperidin-4-yl)amino)-2,4-dimethylnicotinic acid]
20 to 10000 | Cc1cc(N2CCN(C(=O)c3ccc4c(-c5ccc(Cl)c(F)c5)cn(Cc5ncco5)c4n3)C(C)(C)C2)nc(C)c1C(=O)O [Example 173]
< 20 | Cc1cc(N2CCN(C(=O)c3ccc4c(-c5ccc(Cl)c(F)c5)cn(C[C@H]5CCOC5)c4n3)C(C)(C)C2)nc(C)c1C(=O)O [Example 184, (R)-6-(4-(3-(4-chloro-3-fluorophenyl)-1-((tetrahydrofuran-3-yl)methyl)-1H-pyrrolo[2,3-b]pyridine-6-carbonyl)-3,3-dimethylpiperazin-1-yl)-2,4-dimethyinicotinic acid]
20 to 10000 | Cc1cc(C2CCN(C(=O)c3ccc4c(-c5ccc(Cl)c(F)c5)cn(C(C)(C)C)c4n3)CC2)nc(C)c1C(=O)O [Example 168, 6-(1-(1-(tert-butyl)-3-(4-chloro-3-fluorophenyl)-1H-pyrrolo[2,3-b]pyridine-6-carbonyl)piperidin-4-yl)-2,4-dimethylnicotinic acid]
< 20 | CC1(C)CN(C(=O)CCCCCCC(=O)O)CCN1C(=O)c1ccc2c(-c3ccc(Cl)c(F)c3)cn(C(C)(C)C)c2n1 [Example 215, 8-(4-(1-(tert-butyl)-3-(4-chloro-3-fluorophenyl)-1H-pyrrolo[2,3-b]pyridine-6-carbonyl)-3,3-dimethylpiperazin-1-yl)-8-oxooctanoic acid]
< 20 | CC1(C)C(=O)N(CC(=O)N2CCOCC2)CCN1C(=O)c1ccc2c(-c3ccc(Cl)c(F)c3)cn(C(C)(C)C)c2n1 [Example 8, 4-(1-(tert-butyl)-3-(4-chloro-3-fluorophenyl)-1H-pyrrolo[2,3-b]pyridine-6-carbonyl)-3,3-dimethyl-1-(2-morpholino-2-oxoethyl)piperazin-2-one]
> 10000 | CC(C)(C)n1cc(-c2ccc(Cl)c(F)c2)c2ccc(C(=O)N3CCN(c4cn[nH]c(=O)c4)CC3)nc21 [Example 208, 5-(4-(1-(tert-butyl)-3-(4-chloro-3-fluorophenyl)-1H-pyrrolo[2,3-b]pyridine-6-carbonyl)piperazin-1-yl)pyridazin-3(2H)-one]

SMILES | IC50 [nM]
CC(C)(C)n1cc(-c2ccc(Cl)c(F)c2)c2ccc(C(=O)N3[C@@H]4CC[C@H]3COC4)nc21 [Example 19, ((1R,5S)-3-oxa-8-azabicyclo[3.2.1]octan-8-yl)(1-(tertbutyl)-3-(4-chloro-3-fluorophenyl)-1H-pyrrolo[2,3-b]pyridin-6-yl)methanone] | 20 to 10000
